Among the data in US4643987A, “Modified glycopeptides” (Eli Lilly and Company, priority 1985, dated 1987) are MIC and ED50 values, retold here.

Converted amounts (≈) assume the structure as drawn.

Assay [1] relates to Staphylococcus aureus S13E. In kind it is cell-based. To be noted: agar dilution.
Assay [2] deals with Streptococcus pneumoniae Park 1. In kind it is cell-based. To be noted: agar dilution.
The test system of assay [3] is Staphylococcus epidermidis EP11. Nature of the assay: agar-dilution MIC. In kind it is cell-based.
For assay [4], the system named is Streptococcus faecium ATCC 9790. The experiment in a line: agar-dilution MIC. In kind it is cell-based.
Assay [5] has as its system Staphylococcus epidermidis 222. Nature of the assay: agar-dilution MIC. In kind it is cell-based.
In assay [6] the test system is Staphylococcus aureus NRRL B313. Nature of the assay: agar-dilution MIC. In kind it is cell-based.
Assay [7] concerns Haemophilus influenzae C.L. The experiment in a line: agar-dilution MIC. In kind it is cell-based.
Assay [8] has as its system Streptococcus sp. group D 2041. The experiment in a line: agar-dilution MIC. In kind it is cell-based.
For assay [9], the system named is Staphylococcus aureus X400. Nature of the assay: agar-dilution MIC. In kind it is cell-based.
For assay [10], the system named is Haemophilus influenzae 76. The experiment in a line: agar-dilution MIC. In kind it is cell-based.
For assay [11], the system named is Streptococcus pyrogenes C203. The experiment in a line: agar-dilution MIC. In kind it is cell-based.
The test system of assay [12] is Staphylococcus aureus V41. Nature of the assay: agar-dilution MIC. In kind it is cell-based.
Another assay has as its system Streptococcus pneumoniae. Nature of the assay: experimental bacterial infection in mice, ED50. In kind it is in vivo. To be noted: two doses, subcutaneously. As to the method: (§1) Some of the compounds of this invention have also shown in vivo antimicrobial activity against experimental bacterial infections. When two doses of test compound were administered to mice in experimental infections, the activity observed was measured as an ED50 value [effective dose in mg/kg to protect 50% of the test animals: see Warren Wick, et al., J. Bacteriol. 81, 233-235 (1961)].

In a further assay the test system is Staphylococcus aureus. Nature of the assay: experimental bacterial infection in mice, ED50. In kind it is in vivo. To be noted: two doses, subcutaneously. The procedure: as §1
The test system of another assay is Streptococcus pyogenes. Nature of the assay: experimental bacterial infection in mice, ED50. In kind it is in vivo. The note with it: two doses, subcutaneously. The procedure:
as §1

Consider “N^leu -[1-oxo-2-(phenylthio)ethyl]vancomycin [Compound 11]”, for which the MIC in [1] amounted to 4 µg/mL; in assay [2], 2 µg/mL; in assay [3] it was 16 µg/mL; in assay [4], 8 µg/mL; in assay [5] it was 8 µg/mL; in assay [6], 4 µg/mL. Also, the MIC result is “-- (-- = not active at 128 mcg/ml)” in assay [7]; 16 µg/mL in [8]; 8 µg/mL in assay [9]; “-- (-- = not active at 128 mcg/ml)” in assay [10]; 4 µg/mL in assay [11]; 4 µg/mL in [12].
Regarding `CN[C@H](CC(C)C)C(=O)N[C@H]1C(=O)N[C@@H](CC(N)=O)C(=O)N[C@H]2C(=O)N[C@H]3C(=O)N[C@H](C(=O)N[C@H](C(=O)O)c4cc(O)cc(O)c4-c4cc3ccc4O)[C@H](O)c3ccc(c(Cl)c3)Oc3cc2cc(c3O[C@@H]2O[C@H](CO)[C@@H](O)[C@H](O)[C@H]2O[C@H]2C[C@](C)(NC(=O)CC(C)Oc3ccccc3)[C@H](O)[C@H](C)O2)Oc2ccc(cc2Cl)[C@H]1O` (stereo partly drawn) [Compound 6, N^van --(1-oxo-3-phenoxy-n-butyl)vancomycin], the MIC in assay [1] is 2 µg/mL (≈ 1.24 µM); in [2] it was 1 µg/mL (≈ 0.621 µM); in [3], 8 µg/mL (≈ 4.96 µM); in assay [4], 2 µg/mL (≈ 1.24 µM); in assay [5], 2 µg/mL (≈ 1.24 µM); in [6], 1 µg/mL (≈ 0.621 µM). Moreover, the MIC entry was “-- (-- = not active at 128 mcg/ml)” in assay [7]; 4 µg/mL (≈ 2.48 µM) in [8]; 2 µg/mL (≈ 1.24 µM) in assay [9]; “-- (-- = not active at 128 mcg/ml)” in assay [10]; 1 µg/mL (≈ 0.621 µM) in assay [11]; 2 µg/mL (≈ 1.24 µM) in [12]. In addition, the ED50 amounted to 1.8 mg/kg/2 with Streptococcus pneumoniae, 3.7 mg/kg/2 in the assay on Staphylococcus aureus and 3.2 mg/kg/2 in the assay on Streptococcus pyogenes.
Take “N^van -[1-oxo-2-(phenylthio)ethyl]vancomycin [Compound 10]”: the MIC in [1] was found to be 1 µg/mL; in assay [2], 0.5 µg/mL; in [3], 4 µg/mL; in assay [4], 1 µg/mL; in [5] it was 2 µg/mL; in [6], 1 µg/mL. The MIC is 128 µg/mL in [7]; 4 µg/mL in assay [8]; 1 µg/mL in assay [9]; 32 µg/mL in assay [10]; 0.5 µg/mL in assay [11]; 1 µg/mL in assay [12]. Besides, the ED50 is reported as 1.9 mg/kg/2 with Streptococcus pneumoniae, 2.3 mg/kg/2 with Staphylococcus aureus and 4.45 mg/kg/2 with Streptococcus pyogenes.
`CN[C@H](CC(C)C)C(=O)N[C@H]1C(=O)N[C@@H](CC(N)=O)C(=O)N[C@H]2C(=O)N[C@H]3C(=O)N[C@H](C(=O)N[C@H](C(=O)O)c4cc(O)cc(O)c4-c4cc3ccc4O)[C@H](O)c3ccc(c(Cl)c3)Oc3cc2cc(c3O[C@@H]2O[C@H](CO)[C@@H](O)[C@H](O)[C@H]2O[C@H]2C[C@](C)(NC(=O)c3ccc(OC)cc3)[C@H](O)[C@H](C)O2)Oc2ccc(cc2Cl)[C@H]1O` [Compound 4, N^van --(4-methoxybenzoyl)vancomycin]: the MIC in assay [1] was 2 µg/mL (≈ 1.26 µM); in assay [2], 0.5 µg/mL (≈ 0.316 µM); in assay [3], 8 µg/mL (≈ 5.05 µM); in assay [4] it was 2 µg/mL (≈ 1.26 µM); in assay [5], 2 µg/mL (≈ 1.26 µM); in assay [6], 2 µg/mL (≈ 1.26 µM). The MIC in assay [7] turned out to be 128 µg/mL (≈ 80.8 µM); in [8], 8 µg/mL (≈ 5.05 µM); in assay [9], 2 µg/mL (≈ 1.26 µM); in assay [10], 128 µg/mL (≈ 80.8 µM); in assay [11], 1 µg/mL (≈ 0.632 µM); in assay [12], 2 µg/mL (≈ 1.26 µM).
Consider `CC(C)C[C@H](C(=O)N[C@H]1C(=O)N[C@@H](CC(N)=O)C(=O)N[C@H]2C(=O)N[C@H]3C(=O)N[C@H](C(=O)N[C@H](C(=O)O)c4cc(O)cc(O)c4-c4cc3ccc4O)[C@H](O)c3ccc(c(Cl)c3)Oc3cc2cc(c3O[C@@H]2O[C@H](CO)[C@@H](O)[C@H](O)[C@H]2O[C@H]2C[C@](C)(NC(=O)CSc3ccccc3)[C@H](O)[C@H](C)O2)Oc2ccc(cc2Cl)[C@H]1O)N(C)C(=O)CSc1ccccc1` [Compound 12, N^van,N^leu-di-[1-oxo-2-(phenylthio)ethyl]vancomycin], for which the MIC in [1] was determined as 32 µg/mL (≈ 18.3 µM); in assay [2], 8 µg/mL (≈ 4.57 µM); in assay [3], 128 µg/mL (≈ 73.2 µM); in [4], 32 µg/mL (≈ 18.3 µM); in assay [5] it was 64 µg/mL (≈ 36.6 µM); in [6], 16 µg/mL (≈ 9.14 µM). The MIC entry was “-- (-- = not active at 128 mcg/ml)” in assay [7]; 64 µg/mL (≈ 36.6 µM) in assay [8]; 32 µg/mL (≈ 18.3 µM) in assay [9]; “-- (-- = not active at 128 mcg/ml)” in assay [10]; 8 µg/mL (≈ 4.57 µM) in assay [11]; 16 µg/mL (≈ 9.14 µM) in assay [12].
In the case of “N^leu --(4-methoxybenzoyl)vancomycin [Compound 5]”, the MIC was found to be 4 µg/mL in [1]; 2 µg/mL in assay [2]; 16 µg/mL in [3]; 4 µg/mL in assay [4]; 4 µg/mL in assay [5]; 2 µg/mL in assay [6]. The MIC entry in assay [7] is “-- (-- = not active at 128 mcg/ml)”; in assay [8], 8 µg/mL; in assay [9] it was 4 µg/mL; in assay [10], “-- (-- = not active at 128 mcg/ml)”; in [11], 2 µg/mL; in [12], 2 µg/mL.
Turning to `CN[C@H](CC(C)C)C(=O)N[C@H]1C(=O)N[C@@H](CC(N)=O)C(=O)N[C@H]2C(=O)N[C@H]3C(=O)N[C@H](C(=O)N[C@H](C(=O)O)c4cc(O)cc(O)c4-c4cc3ccc4O)[C@H](O)c3ccc(c(Cl)c3)Oc3cc2cc(c3O[C@@H]2O[C@H](CO)[C@@H](O)[C@H](O)[C@H]2O[C@H]2C[C@](C)(N)[C@H](O)[C@H](C)O2)Oc2ccc(cc2Cl)[C@H]1O` [vancomycin, Vancomycin, reference compound], the figures for the ED50 with Streptococcus pneumoniae, with Staphylococcus aureus and in the assay with Streptococcus pyogenes were 0.90-0.93 mg/kg/2, 1.8-3.7 mg/kg/2 and 0.99-1.1 mg/kg/2, respectively.
`CCCCCCCCOc1ccc(C(=O)N[C@@]2(C)C[C@H](O[C@H]3[C@H](Oc4c5cc6cc4Oc4ccc(cc4Cl)[C@@H](O)[C@@H](NC(=O)[C@@H](CC(C)C)NC)C(=O)N[C@@H](CC(N)=O)C(=O)N[C@H]6C(=O)N[C@H]4C(=O)N[C@H](C(=O)N[C@H](C(=O)O)c6cc(O)cc(O)c6-c6cc4ccc6O)[C@H](O)c4ccc(c(Cl)c4)O5)O[C@H](CO)[C@@H](O)[C@@H]3O)O[C@@H](C)[C@H]2O)cc1` [Compound 1, N^van --[4-(n-octyloxy)benzoyl]vancomycin]: the MIC in assay [1] turned out to be 1 µg/mL (≈ 0.595 µM); in assay [2], 2 µg/mL (≈ 1.19 µM); in [3], 16 µg/mL (≈ 9.51 µM); in [4], 0.5 µg/mL (≈ 0.297 µM); in assay [5] it was 4 µg/mL (≈ 2.38 µM); in [6] it was 1 µg/mL (≈ 0.595 µM). Further, the MIC result in assay [7] was “-- (-- = not active at 128 mcg/ml)”; in assay [8], 1 µg/mL (≈ 0.595 µM); in assay [9], 2 µg/mL (≈ 1.19 µM); in assay [10], “-- (-- = not active at 128 mcg/ml)”; in assay [11], 2 µg/mL (≈ 1.19 µM); in assay [12] it was 1 µg/mL (≈ 0.595 µM).
Regarding `CCCCCCCCc1ccc(C(=O)N(C)C(CC(C)C)C(=O)NC2C(=O)NC(CC(N)=O)C(=O)NC3C(=O)NC4C(=O)NC(C(=O)NC(C(=O)O)c5cc(O)cc(O)c5-c5cc4ccc5O)C(O)c4ccc(c(Cl)c4)Oc4cc3cc(c4OC3OC(CO)C(O)C(O)C3OC3CC(C)(N)C(O)C(C)O3)Oc3ccc(cc3Cl)C2O)cc1` (stereo not drawn) [Compound 3, N^leu --[4-(n-octyl)benzoyl]vancomycin], the MIC amounted to 2 µg/mL (≈ 1.2 µM) in [1]; 1 µg/mL (≈ 0.6 µM) in assay [2]; 16 µg/mL (≈ 9.61 µM) in assay [3]; 1 µg/mL (≈ 0.6 µM) in assay [4]; 2 µg/mL (≈ 1.2 µM) in assay [5]; 2 µg/mL (≈ 1.2 µM) in assay [6]. Further, the MIC in [7] amounted to 128 µg/mL (≈ 76.8 µM); in assay [8] it was 1 µg/mL (≈ 0.6 µM); in [9], 2 µg/mL (≈ 1.2 µM); in assay [10], 64 µg/mL (≈ 38.4 µM); in [11], 1 µg/mL (≈ 0.6 µM); in [12] it was 2 µg/mL (≈ 1.2 µM).
